According to patent US4473578A, “β-Lactam antibiotics and their use” (Beecham Group Limited, priority 1979, dated 1984):
≈ marks a conversion by molar mass, not a printed value.

How the values were obtained:
Experiment in all cases: Antibacterial effectiveness in agar
Format in all cases: cell-based
[1] = test system: Bacteroides fragilis 2118; conditions: in agar; Bacteroides fragilis 2118; read-out: M.I.C.
Description: (§1) b. Antibacterial effectiveness of the compound of […]

Bacteroides fragilis B3 = conditions: in agar; Bacteroides fragilis B3; read-out: M.I.C.
Description: as §1

[2] = test system: Bacteroides fragilis BC16; conditions: in agar; Bacteroides fragilis BC16; read-out: M.I.C.
Description: as §1

Bacteroides fragilis BC4 = conditions: in agar; Bacteroides fragilis BC4; read-out: M.I.C.
Description: as §1

[3] = test system: Bacteroides fragilis VP1 8249; conditions: VP18249; in agar; Bacteroides fragilis VP1 8249; read-out: M.I.C.
Description: as §1

[4] = test system: Bacteroides fragilis WS12; conditions: in agar; Bacteroides fragilis WS12; read-out: M.I.C.
Description: as §1

Bacteroides fragilis WS1 = conditions: in agar; Bacteroides fragilis WS1; read-out: M.I.C.
Description: as §1

[5] = test system: Bacteroides fragilis WS41; conditions: in agar; Bacteroides fragilis WS41; read-out: M.I.C.
Description: as §1

[6] = test system: Citrobacter freundii T221; conditions: in agar; Citrobacter freundii T221; read-out: M.I.C.
Description: as §1

Citrobacter freundii W18 = conditions: in agar; Citrobacter freundii W18; read-out: M.I.C.
Description: as §1

[7] = test system: Enterbacter aerogenes NCTC 10006; conditions: in agar; Enterbacter aerogenes NCTC 10006; read-out: M.I.C.
Description: as §1

[8] = test system: Enterbacter aerogenes T660; conditions: in agar; Enterbacter aerogenes T660; read-out: M.I.C.
Description: as §1

[9] = test system: Enterobacter cloacea NCTC 10005; conditions: NCTC10005; in agar; Enterobacter cloacea NCTC 10005; read-out: M.I.C.
Description: as §1

[10] = test system: Enterobacter cloacea T749; conditions: in agar; Enterobacter cloacea T749; read-out: M.I.C.
Description: as §1

Escherichia coli Ba78R+ = conditions: in agar; Escherichia coli Ba78R+; read-out: M.I.C.
Description: as §1

Escherichia coli E8 = conditions: in agar; Escherichia coli E8; read-out: M.I.C.
Description: as §1

Escherichia coli JT1 = conditions: in agar; Escherichia coli JT1; read-out: M.I.C.
Description: as §1

Escherichia coli JT425C+ = conditions: in agar; Escherichia coli JT425C+; read-out: M.I.C.
Description: as §1

Escherichia coli JT4R+ = test system: Escherichia coli JT4R+
Description: as §1

[11] = test system: Klebsiella aerogenes I281; conditions: in agar; Klebsiella aerogenes I281; read-out: M.I.C.
Description: as §1

[12] = test system: Klebsiella aerogenes T219; conditions: in agar; Klebsiella aerogenes T219; read-out: M.I.C.
Description: as §1

[13] = test system: Klebsiella aerogenes Va2R+; conditions: in agar; Klebsiella aerogenes Va2R+; read-out: M.I.C.
Description: as §1

Proteus mirabilis 889 = conditions: in agar; Proteus mirabilis 889; read-out: M.I.C.
Description: as §1

Proteus mirabilis T318 = conditions: in agar; Proteus mirabilis T318; read-out: M.I.C.
Description: as §1

Proteus morganii I = conditions: Morganella morganii; in agar; Proteus morganii I; read-out: M.I.C.
Description: as §1

Proteus rettgeri I = conditions: Providencia rettgeri; in agar; Proteus rettgeri I; read-out: M.I.C.
Description: as §1

[14] = test system: Proteus vulgaris NCTC 4395; conditions: NCTC4395; in agar; Proteus vulgaris NCTC 4395; read-out: M.I.C.
Description: as §1

Proteus vulgaris X = conditions: in agar; Proteus vulgaris X; read-out: M.I.C.
Description: as §1

[15] = test system: Pseudomonas aeruginosa Dalgleish; conditions: in agar; Pseudomonas aeruginosa Dalgleish; read-out: M.I.C.
Description: as §1

[16] = test system: Pseudomonas aeruginosa NCTC 10662; conditions: NCTC10662; in agar; Pseudomonas aeruginosa NCTC 10662; read-out: M.I.C.
Description: as §1

[17] = test system: Pseudomonas aeruginosa W975; conditions: in agar; Pseudomonas aeruginosa W975; read-out: M.I.C.
Description: as §1

[18] = test system: Serratia marcescens Wo146; conditions: in agar; Serratia marcescens Wo146; read-out: M.I.C.
Description: as §1

[19] = test system: Staphylococcus aureus ATCC 25923; conditions: ATCC25923; in agar; Staphylococcus aureus ATCC 25923; read-out: M.I.C.
Description: as §1

[20] = test system: Staphylococcus aureus ME9+; conditions: in agar; Staphylococcus aureus ME9+; read-out: M.I.C.
Description: as §1

[21] = test system: Staphylococcus aureus Smith; conditions: in agar; Staphylococcus aureus Smith; read-out: M.I.C.
Description: as §1

[22] = test system: Streptococcus faecalis T1101; conditions: Enterococcus faecalis; in agar; Streptococcus faecalis T1101; read-out: M.I.C.
Description: as §1

Compound: CC(=O)N/C=C/SC1=C(C(=O)O)N2C(=O)[C@@H]([C@H](C)OS(=O)(=O)O)[C@H]2C1 [MM 13902, reference compound]
- MIC [1]: 0.2 µg/mL (≈ 0.51 µM)
- MIC (Bacteroides fragilis B3): 0.4 µg/mL (≈ 1.02 µM)
- MIC [2]: 1.6 µg/mL (≈ 4.08 µM)
- MIC (Bacteroides fragilis BC4): 1.6 µg/mL (≈ 4.08 µM)
- MIC [3]: 0.2 µg/mL (≈ 0.51 µM)
- MIC [4]: 0.2 µg/mL (≈ 0.51 µM)
- MIC (Bacteroides fragilis WS1): 6.2 µg/mL (≈ 15.8 µM)
- MIC [5]: 0.4 µg/mL (≈ 1.02 µM)
- MIC [6]: 6.2 µg/mL (≈ 15.8 µM)
- MIC (Citrobacter freundii W18): 6.2 µg/mL (≈ 15.8 µM)
- MIC [7]: 0.4 µg/mL (≈ 1.02 µM)
- MIC [8]: 0.4 µg/mL (≈ 1.02 µM)
- MIC [9]: 12.5 µg/mL (≈ 31.9 µM)
- MIC [10]: 12.5 µg/mL (≈ 31.9 µM)
- MIC (Escherichia coli Ba78R+): 0.8 µg/mL (≈ 2.04 µM)
- MIC (Escherichia coli E8): ≤ 0.1 µg/mL
- MIC (Escherichia coli JT1): ≤ 0.1 µg/mL
- MIC (Escherichia coli JT425C+): 0.8 µg/mL (≈ 2.04 µM)
- MIC (Escherichia coli JT4R+): 1.6 µg/mL (≈ 4.08 µM)
- MIC [11]: 0.2 µg/mL (≈ 0.51 µM)
- MIC [12]: ≤ 0.1 µg/mL
- MIC [13]: 6.2 µg/mL (≈ 15.8 µM)
- MIC (Proteus mirabilis 889): 0.2 µg/mL (≈ 0.51 µM)
- MIC (Proteus mirabilis T318): ≤ 0.1 µg/mL
- MIC (Proteus morganii I): 0.2 µg/mL (≈ 0.51 µM)
- MIC (Proteus rettgeri I): 0.2 µg/mL (≈ 0.51 µM)
- MIC [14]: 0.1 µg/mL (≈ 0.255 µM)
- MIC (Proteus vulgaris X): 0.4 µg/mL (≈ 1.02 µM)
- MIC [15]: 50 µg/mL (≈ 127 µM)
- MIC [16]: 25 µg/mL (≈ 63.7 µM)
- MIC [17]: 50 µg/mL (≈ 127 µM)
- MIC [18]: 3.1 µg/mL (≈ 7.9 µM)
- MIC [19]: 1.6 µg/mL (≈ 4.08 µM)
- MIC [20]: 3.1 µg/mL (≈ 7.9 µM)
- MIC [21]: 1.6 µg/mL (≈ 4.08 µM)
- MIC [22]: 6.2 µg/mL (≈ 15.8 µM)
